Measured values: US12082579B2, “Compositions and methods to manage hemiptera” (ISCA Technologies, Inc., priority 2021, dated 2024)

System: Diceraus melacanthus
Test: Field study in a wheat harvest area: attraction of stink bugs by pear ester versus regular pheromone, 24 hour period, six blocks
Assay type: in vivo
Conditions: for attraction rate (stink bugs attracted per treatment): wheat harvest area
Procedure: A study was conducted to evaluate the effectiveness of pear ester versus regular pheromone to attract sting bugs. In particular, a study was conducted in a wheat harvest area in an attempt to attract the stink bug, Diceraus melacanthus.

SMILES: CCCCC/C=C\C=C\C(=O)OCC [Pear Ester, Ethyl-2E,4Z-decadienoate]
- attraction rate compared with regular pheromone (24 hour period, six blocks, result in words): at least, the same as the regular pheromone
- attraction rate (stink bugs attracted per treatment) (Block 1, 24 hour period): 3
- attraction rate (stink bugs attracted per treatment) (Block 2, 24 hour period): 1
- attraction rate (stink bugs attracted per treatment) (Block 3, 24 hour period): 0
- attraction rate (stink bugs attracted per treatment) (Block 4, 24 hour period): 0
- attraction rate (stink bugs attracted per treatment) (Block 5, 24 hour period): 3
- attraction rate (stink bugs attracted per treatment) (Block 6, 24 hour period): 1
- attraction rate, Mean (Mean of six blocks, 24 hour period): 1.33
- attraction rate, Sum (Sum of six blocks, 24 hour period): 8.00
- attractant effect on stink bugs (stink bugs, including Diceraus melacanthus, Nezara viridula, Piezodorus guildinii, Tibraca limbativentris, Chinavia spp, Edessa meditabunda, Euschistus heros, result in words): clearly has an attractant effect
